Reference: US20250302832A1, “PYRAZINE DERIVATIVES AND USES THEREOF” (FOGHORN THERAPEUTICS INC., priority 2022, published 2025)

How the values were obtained:
HiBit-BRM fusion protein = molecular target: T1, HiBit-BRM fusion protein (Homo sapiens, UniProt P51531); experiment: HiBiT-BRM cell-based degradation assay (Nano-Glo HiBiT lytic detection, 24 h); conditions: HeLa cell line expressing HiBiT-BRM; for DC50: read-out: BRM HiBit Degradation IC50
T1 construct: expressed in transfected cells
Summary of the method: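 Stable HeLa HiBiT-BRM cells treated 24 h with compounds (10-point 3-fold dilutions, 30 μM final top dose, duplicate). HiBiT levels read by Nano-Glo lytic luminescence; % degradation normalised to DMSO (high control) and 2 μM reference BRM/BRG1 degrader (low control).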

[1] = molecular target: T2, HiBit-BRG1 fusion protein (Homo sapiens, UniProt P51532); experiment: HiBiT-BRG1 cell-based degradation assay (Nano-Glo HiBiT lytic detection, 24 h); conditions: HeLa cell line expressing HiBit-BRG1 and LgBit, read-out: BRG1 HiBit Degradation Maximum (%)
T2 construct: expressed in transfected cells
T2 sequence (P51532 whole entry, the tested form may be a part): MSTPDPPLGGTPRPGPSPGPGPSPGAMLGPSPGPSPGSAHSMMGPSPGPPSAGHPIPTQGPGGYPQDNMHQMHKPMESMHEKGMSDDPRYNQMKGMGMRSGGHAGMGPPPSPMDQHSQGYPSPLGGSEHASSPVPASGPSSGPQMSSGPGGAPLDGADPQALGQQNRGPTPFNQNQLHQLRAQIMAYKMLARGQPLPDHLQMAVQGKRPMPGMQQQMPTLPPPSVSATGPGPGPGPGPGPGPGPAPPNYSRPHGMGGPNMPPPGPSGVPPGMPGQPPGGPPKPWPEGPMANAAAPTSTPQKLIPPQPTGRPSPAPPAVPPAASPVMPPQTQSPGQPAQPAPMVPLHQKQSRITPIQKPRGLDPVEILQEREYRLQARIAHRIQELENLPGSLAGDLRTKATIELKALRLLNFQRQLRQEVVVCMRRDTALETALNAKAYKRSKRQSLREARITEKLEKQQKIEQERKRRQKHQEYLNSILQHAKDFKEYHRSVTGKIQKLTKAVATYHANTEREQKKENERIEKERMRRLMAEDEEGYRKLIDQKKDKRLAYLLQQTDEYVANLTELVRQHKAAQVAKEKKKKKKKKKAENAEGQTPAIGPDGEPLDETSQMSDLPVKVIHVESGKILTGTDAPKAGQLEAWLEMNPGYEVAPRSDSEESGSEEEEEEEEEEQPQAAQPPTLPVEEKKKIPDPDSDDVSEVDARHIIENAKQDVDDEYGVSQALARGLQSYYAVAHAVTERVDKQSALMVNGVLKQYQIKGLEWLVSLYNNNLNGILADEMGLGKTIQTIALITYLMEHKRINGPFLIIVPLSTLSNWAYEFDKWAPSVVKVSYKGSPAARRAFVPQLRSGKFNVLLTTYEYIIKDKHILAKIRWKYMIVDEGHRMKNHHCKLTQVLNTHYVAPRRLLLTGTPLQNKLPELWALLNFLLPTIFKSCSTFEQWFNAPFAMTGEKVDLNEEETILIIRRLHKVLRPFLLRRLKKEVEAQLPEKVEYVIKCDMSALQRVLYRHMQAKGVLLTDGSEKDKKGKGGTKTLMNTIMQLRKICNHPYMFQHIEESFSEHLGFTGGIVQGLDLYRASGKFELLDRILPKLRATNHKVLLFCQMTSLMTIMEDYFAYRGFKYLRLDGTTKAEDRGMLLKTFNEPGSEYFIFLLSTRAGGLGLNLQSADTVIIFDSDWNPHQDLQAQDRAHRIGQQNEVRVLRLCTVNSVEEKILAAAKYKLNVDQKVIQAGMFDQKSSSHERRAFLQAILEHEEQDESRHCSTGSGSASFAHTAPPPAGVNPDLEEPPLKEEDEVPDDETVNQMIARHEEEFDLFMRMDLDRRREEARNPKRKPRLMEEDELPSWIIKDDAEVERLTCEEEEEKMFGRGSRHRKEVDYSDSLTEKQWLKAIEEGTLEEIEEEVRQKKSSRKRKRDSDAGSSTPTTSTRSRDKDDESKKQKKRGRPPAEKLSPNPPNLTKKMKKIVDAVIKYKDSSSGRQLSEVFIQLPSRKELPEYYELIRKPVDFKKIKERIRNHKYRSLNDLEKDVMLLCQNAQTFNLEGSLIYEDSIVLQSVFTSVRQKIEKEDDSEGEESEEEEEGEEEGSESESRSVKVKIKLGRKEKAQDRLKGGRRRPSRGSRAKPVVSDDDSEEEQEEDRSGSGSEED
Summary of the method: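 HeLa cells stably expressing HiBiT-BRG1 and LgBiT, 5000 per well, compound-treated 24 h, equilibrated 15 min at room temperature, then lysed with LgBiT-containing Nano-Glo HiBiT lytic reagent and luminescence read. % degradation normalised between DMSO (high control) and 2 μM reference BRM/BRG1 degrader (low control).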

T1 sequence (P51531 whole entry, the tested form may be a part): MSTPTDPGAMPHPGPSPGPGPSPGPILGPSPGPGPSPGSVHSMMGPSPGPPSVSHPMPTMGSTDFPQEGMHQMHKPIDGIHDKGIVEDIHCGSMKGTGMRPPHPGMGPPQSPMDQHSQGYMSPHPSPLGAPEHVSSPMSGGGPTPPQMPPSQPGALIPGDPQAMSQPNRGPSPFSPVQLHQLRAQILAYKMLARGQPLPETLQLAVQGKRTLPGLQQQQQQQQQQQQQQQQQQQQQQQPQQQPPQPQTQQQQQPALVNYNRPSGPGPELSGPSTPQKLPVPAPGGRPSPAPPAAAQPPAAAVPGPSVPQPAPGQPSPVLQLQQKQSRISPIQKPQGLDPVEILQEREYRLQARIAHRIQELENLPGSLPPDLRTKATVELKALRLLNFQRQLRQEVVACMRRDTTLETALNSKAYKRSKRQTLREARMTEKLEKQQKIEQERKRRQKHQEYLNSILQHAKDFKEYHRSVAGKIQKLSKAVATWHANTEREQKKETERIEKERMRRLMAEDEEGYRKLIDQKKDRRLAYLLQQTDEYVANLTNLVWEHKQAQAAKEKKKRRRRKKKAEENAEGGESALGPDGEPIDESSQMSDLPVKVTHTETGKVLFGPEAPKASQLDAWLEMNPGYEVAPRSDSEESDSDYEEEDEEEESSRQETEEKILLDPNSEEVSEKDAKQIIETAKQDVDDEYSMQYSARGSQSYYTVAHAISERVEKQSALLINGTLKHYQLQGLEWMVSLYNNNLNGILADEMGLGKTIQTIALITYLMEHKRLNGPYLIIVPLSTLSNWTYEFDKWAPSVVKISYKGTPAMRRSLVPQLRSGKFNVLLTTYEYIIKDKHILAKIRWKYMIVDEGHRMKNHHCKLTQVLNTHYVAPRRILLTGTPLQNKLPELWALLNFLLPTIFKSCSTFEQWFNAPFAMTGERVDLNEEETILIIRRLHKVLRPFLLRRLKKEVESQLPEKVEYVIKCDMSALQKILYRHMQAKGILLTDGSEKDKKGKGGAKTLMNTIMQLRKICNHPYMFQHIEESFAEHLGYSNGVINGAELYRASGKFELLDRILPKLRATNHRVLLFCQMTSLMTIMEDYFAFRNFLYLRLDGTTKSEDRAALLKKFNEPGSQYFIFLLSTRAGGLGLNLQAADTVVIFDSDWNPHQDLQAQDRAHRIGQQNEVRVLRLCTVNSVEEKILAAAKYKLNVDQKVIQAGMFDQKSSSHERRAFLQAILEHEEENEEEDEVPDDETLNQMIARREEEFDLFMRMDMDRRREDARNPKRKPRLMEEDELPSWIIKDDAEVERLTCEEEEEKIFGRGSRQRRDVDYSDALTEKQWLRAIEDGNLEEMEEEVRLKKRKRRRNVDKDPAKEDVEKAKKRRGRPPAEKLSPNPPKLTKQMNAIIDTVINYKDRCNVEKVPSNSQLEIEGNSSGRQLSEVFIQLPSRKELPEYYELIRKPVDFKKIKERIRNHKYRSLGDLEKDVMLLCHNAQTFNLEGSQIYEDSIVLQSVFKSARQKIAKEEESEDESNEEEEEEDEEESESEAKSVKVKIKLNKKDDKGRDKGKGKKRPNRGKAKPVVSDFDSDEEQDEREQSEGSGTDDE

| DC50 (HiBit-BRM fusion protein) [nM] | Dmax [1] [%] | Compound | BRM HiBit Degradation Maximum (%) (HiBit-BRM fusion protein) |
| --- | --- | --- | --- |
| > 10 | < 50 | CC(C)C(C(=O)N1C[C@H](O)C[C@H]1C(=O)NC1CCCC1)c1cc(N2CC3(CC(c4cc5nnc(-c6ccccc6O)cc5n4C4CCC4)C3)C2)no1 (stereo partly drawn) [Compound 119, (2S,4R)-1-(2-(3-(6-(5-cyclobutyl-3-(2-hydroxyphenyl)-5H-pyrrolo[3,2-c]pyridazin-6-yl)-2-azaspiro[3.3]heptan-2-yl)isoxazol-5-yl)-3-methylbutanoyl)-N-cyclopentyl-4-hydroxypyrrolidine-2-carboxamide] | A (“A” indicates maximum degradation ≥75%) |
| > 10 | < 50 | CC(C)C(C(=O)N1C[C@H](O)C[C@H]1C(=O)NC12CC(C1)C2)c1cc(N2CC3(CC(c4cc5nnc(-c6ccccc6O)cc5n4C4CCC4)C3)C2)no1 (stereo partly drawn) [Compound 120, (2S,4R)-N-(bicyclo[1.1.1]pentan-1-yl)-1-(2-(3-(6-(5-cyclobutyl-3-(2-hydroxyphenyl)-5H-pyrrolo[3,2-c]pyridazin-6-yl)-2-azaspiro[3.3]heptan-2-yl)isoxazol-5-yl)-3-methylbutanoyl)-4-hydroxypyrrolidine-2-carboxamide] | A (“A” indicates maximum degradation ≥75%) |
| > 10 | < 50 | C#Cc1ccc([C@H](C)NC(=O)[C@@H]2C[C@@H](O)CN2C(=O)C(c2cc(N3CC4(CC(c5cc6nnc(-c7ccccc7O)cc6n5C5CCC5)C4)C3)no2)C(C)C)c(Cl)c1 (stereo partly drawn) [Compound 121, (2S,4R)-N-((S)-1-(2-chloro-4-ethynylphenyl)ethyl)-1-(2-(3-(6-(5-cyclobutyl-3-(2-hydroxyphenyl)-5H-pyrrolo[3,2-c]pyridazin-6-yl)-2-azaspiro[3.3]heptan-2-yl)isoxazol-5-yl)-3-methylbutanoyl)-4-hydroxypyrrolidine-2-carboxamide] | A (“A” indicates maximum degradation ≥75%) |
